According to US9458198B1, “Cyclic peptide-based NPR-B agonists” (priority 2009, dated 2016):
Read-outs that look alike come from different tables or passages of the source. Where a SMILES comes first, the peptide text is derived from it. Bridges are numbered along the chain shown (N, C = ends). [ ]: non-standard residue; d: D form.

Target: T1, NPR-B (Homo sapiens, UniProt P20594)
T1 construct: a functional assay using endogenously NPR-B expressing GTM-3 cells; endogenous in cells; host or cells: GTM-3 (transformed human trabecular meshwork cells)
T1 sequence (P20594 23-1047): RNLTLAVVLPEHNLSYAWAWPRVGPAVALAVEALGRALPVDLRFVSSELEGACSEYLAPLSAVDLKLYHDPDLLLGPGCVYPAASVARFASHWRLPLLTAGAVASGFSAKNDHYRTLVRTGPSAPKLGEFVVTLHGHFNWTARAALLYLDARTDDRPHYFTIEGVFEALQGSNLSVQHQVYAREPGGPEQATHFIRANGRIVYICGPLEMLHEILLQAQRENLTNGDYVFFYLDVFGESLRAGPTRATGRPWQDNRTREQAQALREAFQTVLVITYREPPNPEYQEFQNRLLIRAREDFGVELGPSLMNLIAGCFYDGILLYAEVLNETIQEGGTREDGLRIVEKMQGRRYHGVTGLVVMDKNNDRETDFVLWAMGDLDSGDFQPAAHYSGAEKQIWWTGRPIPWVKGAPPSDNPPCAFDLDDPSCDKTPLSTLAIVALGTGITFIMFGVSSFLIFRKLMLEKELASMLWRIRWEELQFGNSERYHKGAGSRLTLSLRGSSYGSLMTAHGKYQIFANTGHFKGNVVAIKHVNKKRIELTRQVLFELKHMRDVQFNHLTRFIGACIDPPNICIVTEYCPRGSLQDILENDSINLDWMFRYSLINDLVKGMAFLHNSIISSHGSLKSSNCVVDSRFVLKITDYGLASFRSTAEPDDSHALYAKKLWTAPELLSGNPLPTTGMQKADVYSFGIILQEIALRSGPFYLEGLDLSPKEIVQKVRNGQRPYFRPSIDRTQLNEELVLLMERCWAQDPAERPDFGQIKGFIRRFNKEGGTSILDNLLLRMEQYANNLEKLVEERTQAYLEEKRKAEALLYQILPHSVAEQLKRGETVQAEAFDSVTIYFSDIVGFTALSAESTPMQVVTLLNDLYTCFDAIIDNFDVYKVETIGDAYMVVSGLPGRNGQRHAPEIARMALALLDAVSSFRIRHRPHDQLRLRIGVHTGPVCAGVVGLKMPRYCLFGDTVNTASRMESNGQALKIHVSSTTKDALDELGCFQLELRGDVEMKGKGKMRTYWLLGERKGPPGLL
Assay: NPR-B induced production of cyclic GMP in GTM-3 cells
Type: cell-based
Settings: GTM-3 cells, group needs both EC50 and Emax criteria, checked A then B then C
Description: The efficacy and potency of compounds to activate NPR-B were evaluated in a functional assay using endogenously NPR-B expressing GTM-3 cells (Pang et al. 1994, Curr Eye Res 13:51-63). In this assay the dose dependent production of cyclic GMP (cGMP) is determined and Emax (maximum activation) and EC50 values are calculated.
The cell culture medium is aspirated and each well is washed with 200 μl DMEM/Ham's F12=Medium (Gibco). Then, 200 μl Medium supplemented with 1 mM IBMX (3-Isobutyl-1-methyl-xanthin, Sigma) is added to each well and incubated for 15 min. at room temperature.
Final compound concentrations are in the range from 45 μM to 20 nM.

[1] = read-out: Activity (group): NPR-B activation, EC50 and Emax (CNP = 100%)

EC50 [1] [µM] | Compound | EC50 (Activity (group): NPR-B activation, EC50 and Emax (CNP = 100%)) [µM]
< 5 | CC[C@H](C)[C@@H]1NC(=O)[C@H](CCCNC(=N)N)NC(=O)[C@H](CC(=O)O)NC(=O)[C@H](CC(C)C)NC(=O)[C@H](CCCCN)NC(=O)[C@H](CC(C)C)NC(=O)[C@@H](C)NC(=O)[C@H](Cc2ccccc2)NC(=O)[C@@H](Cc2c[nH]cn2)NC(=O)[C@@H](NC(=O)[C@@H](N)CCSC)CSSC[C@@H](C(N)=O)NC(=O)[C@H](CO)NC1=O [compound 35] | 
< 5 | CC[C@H](C)[C@@H]1NC(=O)[C@H](CCCNC(=N)N)NC(=O)[C@H](CC(=O)O)NC(=O)[C@H](CC(C)C)NC(=O)[C@H](CCCCN)NC(=O)[C@H](CC(C)C)NC(=O)CNC(=O)[C@H](Cc2ccccc2)NC(=O)[C@H]2CCCN2C(=O)[C@@H](NC(=O)[C@@H](N)CCSC)CSSC[C@@H](C(N)=O)NC(=O)[C@H](CO)NC1=O [compound 37] | 
< 5 | CC[C@H](C)[C@@H]1NC(=O)[C@H](CCCNC(=N)N)NC(=O)[C@H](CC(=O)O)NC(=O)[C@H](CC(C)C)NC(=O)[C@H](CCCCN)NC(=O)[C@H](CC(C)C)NC(=O)CNC(=O)[C@H](Cc2ccccc2)NC(=O)[C@@H](C)NC(=O)[C@@H](NC(=O)[C@@H](N)CCSC)CSSC[C@@H](C(N)=O)NC(=O)[C@H](CO)NC1=O [compound 38] | 
< 5 | CC[C@H](C)[C@@H]1NC(=O)[C@H](CCCNC(=N)N)NC(=O)[C@H](CC(=O)O)NC(=O)[C@H](CC(C)C)NC(=O)[C@H](CCCCN)NC(=O)[C@H](CC(C)C)NC(=O)CNC(=O)[C@H](Cc2ccccc2)NC(=O)[C@@H](CO)NC(=O)[C@@H](NC(=O)[C@@H](N)CCSC)CSSC[C@@H](C(N)=O)NC(=O)[C@H](CO)NC1=O [compound 39] | 
< 5 | CC[C@H](C)[C@@H]1NC(=O)[C@H](CCCNC(=N)N)NC(=O)[C@H](CC(=O)O)NC(=O)[C@H](CC(C)C)NC(=O)[C@H](CCCCN)NC(=O)[C@H](CC(C)C)NC(=O)CNC(=O)[C@H](Cc2ccccc2)NC(=O)[C@@H](CC(N)=O)NC(=O)[C@@H](NC(=O)[C@@H](N)CCSC)CSSC[C@@H](C(N)=O)NC(=O)[C@H](CO)NC1=O [compound 40] | 
< 5 | CC[C@H](C)[C@@H]1NC(=O)[C@H](CCCNC(=N)N)NC(=O)[C@H](CC(=O)O)NC(=O)[C@H](CC(C)C)NC(=O)[C@H](CCCNC(=N)N)NC(=O)[C@H](CC(C)C)NC(=O)CNC(=O)[C@H](Cc2ccccc2)NC(=O)[C@@H](Cc2c[nH]cn2)NC(=O)[C@@H](NC(=O)[C@@H](N)CCSC)CSSC[C@@H](C(N)=O)NC(=O)[C@H](CO)NC1=O [compound 42] (H-MC[dH]FGLRLDRISC-NH2; disulfide 2-13) | 

Continued, molecule first:

Compound | EC50 [1] [µM] | EC50 (Activity (group): NPR-B activation, EC50 and Emax (CNP = 100%)) [µM]
CC[C@H](C)[C@@H]1NC(=O)[C@H](CCCNC(=N)N)NC(=O)[C@H](CC(=O)O)NC(=O)[C@H](CC(C)C)NC(=O)[C@H](CCCCN)NC(=O)[C@H](CC(C)C)NC(=O)CNC(=O)[C@H](Cc2ccccc2)NC(=O)[C@H](Cc2c[nH]cn2)NC(=O)[C@@H](NC(=O)[C@@H](N)CCSC)CSSC[C@@H](C(=O)N[C@@H](CC(C)C)C(=O)N[C@@H](CCCNC(=N)N)C(N)=O)NC(=O)[C@H](CO)NC1=O [compound 23] (H-MCHFGLKLDRISCLR-NH2; disulfide 2-13) | < 5 | 
CC[C@H](C)[C@@H]1NC(=O)[C@H](CCCNC(=N)N)NC(=O)[C@H](CC(=O)O)NC(=O)[C@H](CC(C)C)NC(=O)[C@H](CCCCN)NC(=O)[C@H](CC(C)C)NC(=O)CNC(=O)[C@H](Cc2ccccc2)NC(=O)[C@H](Cc2c[nH]cn2)NC(=O)[C@@H](NC(=O)[C@@H](N)CCSC)CSSC[C@@H](C(=O)N[C@@H](CO)C(=O)N[C@@H](CCCNC(=N)N)C(N)=O)NC(=O)[C@H](CO)NC1=O [compound 24] (H-MCHFGLKLDRISCSR-NH2; disulfide 2-13) | < 5 | 
CC[C@H](C)[C@@H]1NC(=O)[C@H](CCCNC(=N)N)NC(=O)[C@H](CC(=O)O)NC(=O)[C@H](CC(C)C)NC(=O)[C@H](CCCCN)NC(=O)[C@H](CC(C)C)NC(=O)CNC(=O)[C@H](Cc2ccccc2)NC(=O)[C@H](Cc2c[nH]cn2)NC(=O)[C@@H](NC(=O)[C@@H](N)CCSC)CSSC[C@@H](C(=O)N[C@@H](Cc2c[nH]cn2)C(=O)N[C@@H](CCCNC(=N)N)C(N)=O)NC(=O)[C@H](CO)NC1=O [compound 25] (H-MCHFGLKLDRISCHR-NH2; disulfide 2-13) | < 15 | 
CC[C@H](C)[C@@H]1NC(=O)[C@H](CCCNC(=N)N)NC(=O)[C@H](CC(=O)O)NC(=O)[C@H](CC(C)C)NC(=O)[C@H](CCCCN)NC(=O)[C@H](CC(C)C)NC(=O)CNC(=O)[C@H](Cc2ccccc2)NC(=O)[C@H](Cc2c[nH]cn2)NC(=O)[C@@H](NC(=O)[C@@H](N)CCSC)CSSC[C@@H](C(=O)N[C@@H](Cc2ccc(O)cc2)C(=O)N[C@@H](CO)C(N)=O)NC(=O)[C@H](CO)NC1=O [compound 26] (H-MCHFGLKLDRISCYS-NH2; disulfide 2-13) | < 15 | 
CC[C@H](C)[C@@H]1NC(=O)[C@H](CCCNC(=N)N)NC(=O)[C@H](CC(=O)O)NC(=O)[C@H](CC(C)C)NC(=O)[C@H](CCCCN)NC(=O)[C@H](CC(C)C)NC(=O)CNC(=O)[C@H](Cc2ccccc2)NC(=O)[C@H](Cc2c[nH]cn2)NC(=O)[C@@H](NC(=O)[C@@H](N)CCSC)CSSC[C@@H](C(=O)N[C@@H](Cc2ccc(O)cc2)C(=O)N[C@@H](CC(N)=O)C(N)=O)NC(=O)[C@H](CO)NC1=O [compound 27] (H-MCHFGLKLDRISCYN-NH2; disulfide 2-13) | < 5 | 
CC[C@H](C)[C@@H]1NC(=O)[C@H](CCCNC(=N)N)NC(=O)[C@H](CC(=O)O)NC(=O)[C@H](CC(C)C)NC(=O)[C@H](CCCCN)NC(=O)[C@H](CC(C)C)NC(=O)CNC(=O)[C@H](Cc2ccccc2)NC(=O)[C@H](Cc2c[nH]cn2)NC(=O)[C@@H](NC(=O)[C@@H](N)CCSC)CSSC[C@@H](C(=O)N[C@@H](Cc2ccc(O)cc2)C(=O)N[C@@H](Cc2c[nH]cn2)C(N)=O)NC(=O)[C@H](CO)NC1=O [compound 28] (H-MCHFGLKLDRISCYH-NH2; disulfide 2-13) | < 5 | 
CC[C@H](C)[C@@H]1NC(=O)[C@H](CCCNC(=N)N)NC(=O)[C@H](CC(=O)O)NC(=O)[C@H](CC(C)C)NC(=O)[C@H](CCCCN)NC(=O)[C@H](CC(C)C)NC(=O)CNC(=O)[C@H](Cc2ccc(Cl)cc2)NC(=O)[C@H](Cc2c[nH]cn2)NC(=O)[C@@H](NC(=O)[C@@H](N)CCSC)CSSC[C@@H](C(N)=O)NC(=O)[C@H](CO)NC1=O [compound 29] | < 15 | 
CC[C@H](C)[C@@H]1NC(=O)[C@H](CCCNC(=N)N)NC(=O)[C@H](CC(=O)O)NC(=O)[C@H](CC(C)C)NC(=O)[C@H](CCCCN)NC(=O)[C@H](CC(C)C)NC(=O)CNC(=O)[C@H](Cc2ccccc2)NC(=O)CCCNC(=O)[C@@H](NC(=O)[C@@H](N)CCSC)CSSC[C@@H](C(N)=O)NC(=O)[C@H](CO)NC1=O [compound 32] | < 15 | 
CC[C@H](C)[C@@H]1NC(=O)[C@H](CCCNC(=N)N)NC(=O)[C@H](CC(=O)O)NC(=O)[C@H](CC(C)C)NC(=O)[C@H](CCCCN)NC(=O)[C@H](CC(C)C)NC(=O)[C@@H](C)NC(=O)[C@H](Cc2ccccc2)NC(=O)CNC(=O)[C@@H](NC(=O)[C@@H](N)CCSC)CSSC[C@@H](C(N)=O)NC(=O)[C@H](CO)NC1=O [compound 34] (H-MCGF[dA]LKLDRISC-NH2; disulfide 2-13) | < 5 | 
CC[C@H](C)[C@@H]1NC(=O)[C@H](CCCNC(=N)N)NC(=O)[C@H](CC(=O)O)NC(=O)[C@H](CC(C)C)NC(=O)[C@@H]2CCCN2C(=O)[C@H](CC(C)C)NC(=O)CNC(=O)[C@H](Cc2ccccc2)NC(=O)[C@@H](Cc2c[nH]cn2)NC(=O)[C@@H](NC(=O)[C@@H](N)CCSC)CSSC[C@@H](C(N)=O)NC(=O)[C@H](CO)NC1=O [compound 41] (H-MC[dH]FGLPLDRISC-NH2; disulfide 2-13) |  | < 5
CC[C@H](C)[C@@H]1NC(=O)[C@H](CCCNC(=N)N)NC(=O)[C@H](CC(=O)O)NC(=O)[C@H](CC(C)C)NC(=O)[C@H](CCCCN)NC(=O)[C@H](CC(C)C)NC(=O)CNC(=O)[C@H](Cc2ccccc2)NC(=O)[C@@H](Cc2ccccc2)NC(=O)[C@@H](NC(=O)[C@@H](N)CCSC)CSSC[C@@H](C(N)=O)NC(=O)[C@H](CO)NC1=O [compound 45] | < 15 | 
